Source: US20230071765A1, “COMPOSITIONS HAVING THIOREDOXIN ACTIVITY AND RELATED METHODS” (ORPRO THERAPEUTICS, INC., priority 2020, published 2023)
Several values for one entry are separate records, joined by “and”; a condition that tells them apart may be missing. Equal entries are not always repeated. One block for each molecule: values may come before it.

Experiments:
[1] = tested on: CF patient sputum on wild type rat trachea; test: CF sputum transport ex vivo on excised rat trachea (μOCT); set-up: species or system human sputum; settings: sputum treated 2 hrs; ORP100S 3 mM, DTT 1.6 mM, DNase 10 or 25 μg/ml; PBS 0.97±0.17
Experimental: To determine the effect of ORP100S on CF sputum transportability, sputum specimens spontaneously expectorated from 4 CF patients hospitalized for pulmonary exacerbation were collected and stored at 4° C. before being divided into 200 μL aliquots and treated with ORP100S (3 mM), PBS, DTT (1.6 mM), or DNase (10 or 25 μg/ml) on the day of or day following collection. Upon treatment, sputum aliquots were placed in a 37° C. water bath for 2 hrs and then applied (3 μl per sample) for μOCT imaging to the distal end of trachea excised from adult non-CF rats. Trachea were washed 2× with 500 μl of PBS before sputum addition. […]
One-micron resolution spectral domain μOCT was used to obtain measurements of mucociliary transport (MCT) rate and ciliary beat frequency (CBF) in HBE monolayers and of MCT rate of sputum ex vivo. […] Images were captured, and MCT rate and CBF calculated, as described in the preceding references.
The effect of ORP100S on mucus clearance using intact rat trachea, which include the complexities of the airway surface such as gland expression of a fully differentiated mucosal surface, was further evaluated. […] MCT was measured by projecting a cross-sectional line through the mucus through time, with the slope of the particle trajectories indicating velocity. […]

[2] = tested on: primary HBE cells from healthy non-CF donors; test: μOCT of MCT rate and CBF in non-CF primary HBE cells; type: cell-based, human; settings: 3 hrs post-treatment; ORP100S 1-3 mM, DTT 1.6 mM; PBS 0.05±0.007; mean±SE
Text: (§1) Primary human bronchial epithelial (HBE) cells were derived from lung explants from healthy failed donors and CF patients homozygous for F508del CFTR. […]
(§2) One-micron resolution spectral domain μOCT was used to obtain measurements of mucociliary transport (MCT) rate and ciliary beat frequency (CBF) in HBE monolayers and of MCT rate of sputum ex vivo. This first-in-kind, high-speed (40 frames per second, 512 lines per frame) microscopic reflectance imaging modality enables simultaneous anatomic imaging in cell cultures and intact tissues that readily distinguishes the properties of CF compared to normal epithelia (Liu L, Chu K K, Houser G H, Diephuis B J, Li Y, Wilsterman E J, Shastry S, Dierksen G, Birket S E, Mazur M, et al., 2013, Method for quantitative study of airway functional microanatomy using micro-optical coherence tomography, PLoS One 8(1):e54473; Tuggle K L, Birket S E, Cui X, Hong J, Warren J, Reid L, Chambers A, Ji D, Gamber K, Chu K K, et al., 2014, Characterization of defects in ion transport and tissue development in Cystic Fibrosis Transmembrane Conductance Regulator (CFTR)-knockout rats. […] Images were captured, and MCT rate and CBF calculated, as described in the preceding references.

[3] = tested on: mucins of 4% HBE mucus; test: mucin molecular weight by GPC-MALLS; type: biochemical, human; settings: 1 mM, 1 hr at 37° C.; from 180 MDa
Text: Mucus Preparation: Aseptic mucus was harvested from over 100 individual HBE cultures from 20 different CF donors and prepared to four weight-percent (4%) solids, a concentration that typifies chronic obstructive pulmonary disease (COPD) and mild CF (Hill, D. B. et al., 2014, A biophysical basis for mucus solids concentration as a candidate biomarker for airways disease, PloS one 9, e87681; Anderson, W. H. et al., 2015, The relationship of mucus concentration (hydration) to mucus osmotic pressure and transport in chronic bronchitis., Am J Resp Crit Care Med 192: 182-90). […] Creep recovery experiments were performed in which a known stress (between 0.05 and ˜100 Pa) was applied to treated or control mucus for 10 seconds, and the rheological recovery of the fluid was recorded for an additional 50 seconds. […] From the measured parameters the viscosity and elasticity of the fluid were determined as a function of applied stress. […] Mucin molecular weight determination: Molecular weight reduction following test article treatment was determined using a combination of gel-permeation chromatography with multi-angle laser light scattering on a Wyatt Heleos MALLS system. […] Mucin MW was determined by fitting a Berry model to light scattering from 11 different angles using Wyatt Astra software. […]

[4] = tested on: primary HBE cells from CF donors homozygous for F508del; test: μOCT of MCT rate and CBF in CF primary HBE cells; type: cell-based, human; settings: 3 hrs post-treatment; ORP100S 1-3 mM, DTT 1.6 mM; PBS 7.30±2.9; mean±SE
Text: as §1, §2

[5] = thiol pKa; thioredoxin: active site Cys32; cited from earlier work
[6] = target: T1, human insulin (Homo sapiens, UniProt P01308); test: RP-HPLC insulin reduction assay (conversion of insulin heterodimer); type: biochemical
T1 construct: The two chains of human insulin have a total of six Cys residues which form three disulfide bonds in its mature structure
Experimental: Functional assays 1. Reduction state of ORP100S was quantified using DTNB which reacts with free SH groups resulting in a yellow color change at 412 nm. Fifty microliters of 2.5 mM rhTrx was added to a 96-well plate, followed by 175 microliters of sample buffer and 25 microliters of 6 mM DTNB. After reactions were initiated by the addition of DTNB, change in kinetic absorbance at 412 nm due to DTNB reduction was monitored spectrophotometrically at 30° C. ORP100S concentration was determined by A280 (Nanodrop) using the extinction coefficient of human Trx-1 (7,000). The actual concentrations of free sulfhydryl groups were calculated based on the absorbance at 412 nm and the extinction coefficient of DTNB (14,150) in order to determine the reduction state as percentage of free sulfhydryl. […] 2. Percent of free monomer ORP100S in solution was determined using SEC. Samples were analyzed on a BioBasic S-300 250×4.6 column (Thermo Scientific) run on an Agilent 1100 HPLC system. […] The flow rate was 0.35 mL/min and absorbance was monitored at 280 nm. […] The ORP100S monomer percentage was determined by integration of the area under the peak of the monomeric fraction divided by the total area under the curve of the chromatogram. […] Disulfide bond reduction activity of ORP100S was quantified by assaying the reduction state of a small protein (human insulin) which in its heterodimeric form contains two intermolecular and one intramolecular disulfide, all three of which are known to be suitable thioredoxin substrates. Insulin reduction has classically been used to quantify thioredoxin activity by absorbance change following addition of NADPH and TrxR (Holmgren A., 1979, Thioredoxin catalyzes the reduction of insulin disulfides by dithiothreitol and dihydrolipoamide, J Biol Chem 254:9627-32). […] Relative activity at each time point was determined from changes in the area under the insulin heterodimer peak following separation over RP-HPLC (Agilent 1100) using an Intrada WP-RP 50×3 (Imtakt) column. […] The flow rate was 0.2 mL/min and absorbance was measured at 280 nm. […]

T1 sequence (P01308 25-54 limits assumed): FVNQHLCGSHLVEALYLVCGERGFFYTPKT
T1 sequence (P01308 90-110 limits assumed): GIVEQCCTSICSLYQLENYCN

SMILES: O[C@H](CS)[C@H](O)CS (racemic) [DTT, dithiothreitol, reference compound]
- MCT rate of treated sputum [1]: 2.31±0.34 mm/min
- MCT rate [2]: 1.41±0.1 mm/min
- molecular weight of mucins [3]: 210 MDa
- MCT rate [4]: 33.33±12.9 mm/min

SMILES: N[C@@H](CCC(=O)N[C@@H](CS)C(=O)NCC(=O)O)C(=O)O [GSH, glutathione]
- pKa [5]: 9.1

SMILES: O=S(=O)(O)CCS [Mesna, 2-mercaptoethane sulfonate Na]
- pKa [5]: 9.2

- insulin reduction ([6]; 1.25 mM, pH 6 or 8, 60 min): inactive
- insulin reduction ([6]; 12.5 mM, pH 6, 60 min): not at pH 6
- insulin reduction ([6]; 12.5 mM, pH 8, 60 min): able to reduce insulin
SMILES: CC(=O)N[C@@H](CS)C(=O)O [NAC, N-acetyl cysteine, reference compound]

SMILES: NCCS [cysteamine]
- pKa [5]: 8.3 and 8.5
